Data: PMC8655881 (Cancer research, 2021)

Legend:
[1] = test system: OE33 cells; conditions: read-out: EC50, OE33 colony formation and other Notch-dependent cell lines; as previously reported; cited from earlier work
[2] = test system: small intestines; assay: PAS staining of small intestine, 5 daily treatments; type: in vivo; conditions: 5 daily i.p. treatments; NADI-351 up to 40 mg/kg, DBZ 10 mg/kg
[3] = test system: hNotch1^ICD; assay: Inducible Notch1^ICD-driven luciferase reporter assay in 293A cells; type: cell-based, human; conditions: read-out: IC50, inducible Notch1^ICD-responsive luciferase reporter, 24 h, normalized to cell viability

## C[C@H](NC(=O)Cc1cc(F)cc(F)c1)C(=O)N[C@H](C(=O)OC(C)(C)C)c1ccccc1 [DAPT]
[1]
  EC50: 10 to 15 µM

## C[C@H](NC(=O)Cc1cc(F)cc(F)c1)C(=O)N[C@@H]1C(=O)N(C)c2ccccc2-c2ccccc21 [DBZ]
[2]
  GI toxicity / goblet cell metaplasia (PAS staining): induction of goblet cell metaplasia

## CCOC(=O)COc1ccc(/C=C2\SC(=S)NC2=O)cc1OC [IMR-1]
[1]
  EC50: 10 to 15 µM
[3]
  IC50: > 40 µM
